# From EP4635500A1, “THERAPEUTIC AGENT FOR BACTERIAL INFECTION” (Sumitomo Pharma Co., Ltd., priority 2022, dated 2024)
# Experiments:
# Assay type in all cases: cell-based
# Conditions in all cases: for MIC: (n)=Compound A µg/mL, 0=Compound A alone antibacterial
# Bacteroides spp. = experiment: MIC, agar dilution, anaerobic bacteria (Example 9, Tables 17, 22)
# Prevotella spp. = experiment: MIC, agar dilution, anaerobic bacteria (Example 9, Tables 18, 23)
# Porphyromonas spp. = experiment: MIC, agar dilution, anaerobic bacteria (Example 9, Tables 19, 24)
structure (smiles),measurement,setting,value
Cc1ncc([N+](=O)[O-])n1CCO [Metronidazole],MICrange,Bacteroides spp.; Bacteroides spp.,≤0.12 to 2 µg/mL
same,MIC50,"Bacteroides spp.; Bacteroides spp., read-out: MIC50",1 µg/mL
same,MIC90,"Bacteroides spp.; Bacteroides spp., read-out: MIC90",1 µg/mL
same,MIC,"Bacteroides spp.; Bacteroides, KUB No. 2982 Bacteroidesfragilis",1 µg/mL
same,MIC,"Bacteroides spp.; Bacteroides, KUB No. 6464 Bacteroides vulgarus",0.5 µg/mL
same,MIC,"Bacteroides spp.; Bacteroides, KUB No. 6480 Bacteroides thetaioraomicron",1 µg/mL
same,MIC,"Bacteroides spp.; Bacteroides, KUB No. 6487 Bacteroides thetaiotamicron",0.25 µg/mL
same,MIC,Bacteroides spp.; KUB No. 2977 Bacteroides thetaiotaomicron ATCC 29741,2 µg/mL
same,MIC,Bacteroides spp.; KUB No. 2983 Bacteroides fragilis,0.25 µg/mL
same,MIC,Bacteroides spp.; KUB No. 2984 Bacteroides thetaiotaomicron,1 µg/mL
same,MIC,Bacteroides spp.; KUB No. 3003 Bacteroides fragilis ATCC 25285,0.5 µg/mL
same,MIC,Bacteroides spp.; KUB No. 3009 Bacteroides ovatus,1 µg/mL
same,MIC,Bacteroides spp.; KUB No. 6458 Bacteroides fragilis,0.5 µg/mL
same,MIC,Bacteroides spp.; KUB No. 6459 Bacteroides stercoris,1 µg/mL
same,MIC,Bacteroides spp.; KUB No. 6460 Bacteroides thetaiotaomicron,2 µg/mL
same,MIC,Bacteroides spp.; KUB No. 6461 Bacteroides fragilis,0.5 µg/mL
same,MIC,Bacteroides spp.; KUB No. 6463 Bacteroides fragilis,0.5 µg/mL
same,MIC,Bacteroides spp.; KUB No. 6465 Bacteroides thetaiotaomicron,2 µg/mL
same,MIC,Bacteroides spp.; KUB No. 6466 Bacteroides fragilis,1 µg/mL
same,MIC,Bacteroides spp.; KUB No. 6467 Bacteroides fragilis,0.5 µg/mL
same,MIC,Bacteroides spp.; KUB No. 6468 Bacteroides fragilis,1 µg/mL
same,MIC,Bacteroides spp.; KUB No. 6469 Bacteroides fragilis,1 µg/mL
same,MIC,Bacteroides spp.; KUB No. 6470 Bacteroides fragilis,2 µg/mL
same,MIC,Bacteroides spp.; KUB No. 6471 Bacteroides fragilis,1 µg/mL
same,MIC,Bacteroides spp.; KUB No. 6472 Bacteroides stercoris,0.5 µg/mL
same,MIC,Bacteroides spp.; KUB No. 6473 Bacteroides fragilis,1 µg/mL
same,MIC,Bacteroides spp.; KUB No. 6474 Bacteroides fragilis,0.5 µg/mL
same,MIC,Bacteroides spp.; KUB No. 6475 Bacteroides thetaiotaomicron,1 µg/mL
same,MIC,Bacteroides spp.; KUB No. 6476 Bacteroides vulgatus,1 µg/mL
same,MIC,Bacteroides spp.; KUB No. 6477 Bacteroides fragilis,≤ 0.12 µg/mL
same,MIC,Bacteroides spp.; KUB No. 6478 Bacteroides fragilis,0.25 µg/mL
same,MIC,Bacteroides spp.; KUB No. 6481 Bacteroides fragilis,1 µg/mL
same,MIC,Bacteroides spp.; KUB No. 6483 Bacteroides fragilis,0.25 µg/mL
same,MIC,Bacteroides spp.; KUB No. 6484 Bacteroides fragilis,0.5 µg/mL
same,MIC,Bacteroides spp.; KUB No. 6485 Bacteroides vulgatus,0.25 µg/mL
same,MIC,Bacteroides spp.; KUB No. 6486 Bacteroides fragilis,1 µg/mL
same,MIC,Bacteroides spp.; KUB No. 6490 Bacteroides fragilis,0.5 µg/mL
same,MIC,Bacteroides spp.; KUB No. 6491 Bacteroides fragilis,1 µg/mL
same,MIC,Bacteroides spp.; KUB No. 6493 Bacteroides thetaiotaomicron,1 µg/mL
same,MIC,Bacteroides spp.; KUB No. 6496 Bacteroides fragilis,1 µg/mL
same,MIC,Bacteroides spp.; KUB No. 6497 Bacteroides vulgatus,1 µg/mL
same,MIC,Bacteroides spp.; KUB No. 6502 Bacteroides fragilis,0.25 µg/mL
same,MIC,Bacteroides spp.; KUB No. 6503 Bacteroides thetaiotaomicron,1 µg/mL
same,MIC,Bacteroides spp.; KUB No. 6504 Bacteroides caccae,1 µg/mL
same,MIC,Bacteroides spp.; KUB No. 6506 Bacteroides thetaiotaomicron,1 µg/mL
same,MIC,Bacteroides spp.; KUB No. 6509 Bacteroides fragilis,≤ 0.12 µg/mL
same,MIC,Bacteroides spp.; KUB No. 6511 Bacteroides salyersiae,1 µg/mL
same,MIC,Bacteroides spp.; KUB No. 6513 Bacteroides fragilis,0.5 µg/mL
same,MIC,Bacteroides spp.; KUB No. 6515 Bacteroides thetaiotaomicron,1 µg/mL
same,MIC,Bacteroides spp.; KUB No. 6518 Bacteroides fragilis,0.5 µg/mL
same,MIC,Bacteroides spp.; KUB No. 6522 Bacteroides fragilis,1 µg/mL
same,MIC,Bacteroides spp.; KUB No. 6523 Bacteroides fragilis,1 µg/mL
same,MIC,Bacteroides spp.; KUB No. 6525 Bacteroides fragilis,1 µg/mL
same,MIC,Bacteroides spp.; KUB No. 6527 Bacteroides thetaiotaomicron,1 µg/mL
same,MIC,Bacteroides spp.; KUB No. 6530 Bacteroides thetaiotaomicron,1 µg/mL
same,MIC,Bacteroides spp.; KUB No. 6535 Bacteroides fragilis,0.5 µg/mL
same,MIC,Bacteroides spp.; KUB No. 6544 Bacteroides vulgatus,1 µg/mL
same,MIC,Bacteroides spp.; KUB No. 6545 Bacteroides thetaiotaomicron,0.5 µg/mL
same,MIC,Bacteroides spp.; KUB No. 6556 Bacteroides vulgatus,0.5 µg/mL
same,MIC,Prevotella spp.; KUB No. 2989 Prevotella histicola,0.5 µg/mL
same,MIC,Prevotella spp.; KUB No. 2991 Prevotella intermedia,0.5 µg/mL
same,MIC,Prevotella spp.; KUB No. 2992 Prevotella buccae,1 µg/mL
same,MIC,Prevotella spp.; KUB No. 3005 Prevotella melaninogenica,1 µg/mL
same,MIC,Prevotella spp.; KUB No. 6558 Prevotella heparinolytica,0.25 µg/mL
same,MIC,Prevotella spp.; KUB No. 6559 Prevotella intermedia,2 µg/mL
same,MIC,Prevotella spp.; KUB No. 6560 Prevotella nigrescens,0.5 µg/mL
same,MIC,Prevotella spp.; KUB No. 6561 Prevotella melaninogenica,1 µg/mL
same,MIC,Prevotella spp.; KUB No. 6563 Prevotella nigrescens,0.5 µg/mL
same,MIC,Prevotella spp.; KUB No. 6564 Prevotella buccae,2 µg/mL
same,MIC,Prevotella spp.; KUB No. 6565 Prevotella nigrescens,0.5 µg/mL
same,MIC,Prevotella spp.; KUB No. 6567 Prevotella melaninogenica,0.5 µg/mL
same,MIC,Prevotella spp.; KUB No. 6568 Prevotella intermedia,1 µg/mL
same,MIC,Prevotella spp.; KUB No. 6569 Prevotella nanceiensis,2 µg/mL
same,MIC,Prevotella spp.; KUB No. 6570 Prevotella intermedia,2 µg/mL
same,MIC,Prevotella spp.; KUB No. 6571 Prevotella denticola,0.25 µg/mL
same,MIC,Prevotella spp.; KUB No. 6572 Prevotella melaninogenica,0.5 µg/mL
same,MIC,Prevotella spp.; KUB No. 6574 Prevotella oris,0.5 µg/mL
same,MIC,Prevotella spp.; KUB No. 6575 Prevotella nigrescens,1 µg/mL
same,MIC,Prevotella spp.; KUB No. 6576 Prevotella intermedia,0.25 µg/mL
same,MIC,Prevotella spp.; KUB No. 6579 Prevotella pallens,0.5 µg/mL
same,MIC,Prevotella spp.; KUB No. 6581 Prevotella intermedia,2 µg/mL
same,MIC,Prevotella spp.; KUB No. 6582 Prevotella melaninogenica,0.5 µg/mL
same,MIC,Prevotella spp.; KUB No. 6585 Prevotella baroniae,1 µg/mL
same,MIC,Prevotella spp.; KUB No. 6587 Prevotella melaninogenica,≤ 0.12 µg/mL
same,MIC,Prevotella spp.; KUB No. 6588 Prevotella nigrescens,0.5 µg/mL
same,MIC,Prevotella spp.; KUB No. 6589 Prevotella buccae,0.5 µg/mL
same,MIC,Prevotella spp.; KUB No. 6590 Prevotella buccae,0.5 µg/mL
same,MIC,Prevotella spp.; KUB No. 6591 Prevotella intermedia,0.5 µg/mL
same,MIC,Prevotella spp.; KUB No. 6592 Prevotella jejuni,0.5 µg/mL
same,MIC,Prevotella spp.; KUB No. 6600 Prevotella intermedia,0.5 µg/mL
same,MIC,Prevotella spp.; KUB No. 6601 Prevotella melaninogenica,0.5 µg/mL
same,MIC,Prevotella spp.; KUB No. 6603 Prevotella melaninogenica,0.25 µg/mL
same,MIC,Prevotella spp.; KUB No. 6609 Prevotella buccae,0.5 µg/mL
same,MIC,Prevotella spp.; KUB No. 6611 Prevotella nigrescens,1 µg/mL
same,MIC,Prevotella spp.; KUB No. 6612 Prevotella oris,0.5 µg/mL
same,MIC,Prevotella spp.; KUB No. 6613 Prevotella buccae,0.5 µg/mL
same,MIC,Prevotella spp.; KUB No. 6614 Prevotella intermedia,1 µg/mL
same,MIC,Prevotella spp.; KUB No. 6615 Prevotella buccae,1 µg/mL
same,MIC,Prevotella spp.; KUB No. 6617 Prevotella buccae,2 µg/mL
same,MIC,Prevotella spp.; KUB No. 6618 Prevotella melaninogenica,0.25 µg/mL
same,MIC,Prevotella spp.; KUB No. 6622 Prevotella loescheii,1 µg/mL
same,MIC,Prevotella spp.; KUB No. 6623 Prevotella nigrescens,1 µg/mL
same,MIC,Prevotella spp.; KUB No. 6625 Prevotella melaninogenica,0.5 µg/mL
same,MIC,Prevotella spp.; KUB No. 6626 Prevotella loescheii,1 µg/mL
same,MIC,Prevotella spp.; KUB No. 6629 Prevotella bivia,8 µg/mL
same,MIC,Prevotella spp.; KUB No. 6630 Prevotella nigrescens,0.5 µg/mL
same,MIC,Prevotella spp.; KUB No. 6631 Prevotella jejuni,0.5 µg/mL
same,MICrange,Prevotella spp.; Prevotella spp.,≤0.12 to 8 µg/mL
same,MIC50,"Prevotella spp.; Prevotella spp., read-out: MIC50",0.5 µg/mL
same,MIC90,"Prevotella spp.; Prevotella spp., read-out: MIC90",2 µg/mL
same,MIC,"Prevotella spp.; Prevotella, KUB No. 6583 Prevotella nonceiensis",2 µg/mL
same,MIC,"Prevotella spp.; Prevotella, KUB No. 6604 Prevotella nonceiensis",1 µg/mL
same,MIC,"Prevotella spp.; po, KUB No. 6566 Prevotella oralis",0.25 µg/mL
same,MIC,Porphyromonas spp.; KUB No. 6663 Porphyromonas gingivalis,≤ 0.12 µg/mL
same,MIC,Porphyromonas spp.; KUB No. 6666 Porphyromonas gingivalis,≤ 0.12 µg/mL
same,MIC,Porphyromonas spp.; KUB No. 6667 Porphyromonas gingivalis,≤ 0.12 µg/mL
same,MIC,Porphyromonas spp.; KUB No. 6668 Porphyromonas gingivalis,≤ 0.12 µg/mL
same,MIC,Porphyromonas spp.; KUB No. 6669 Porphyromonas gingivalis,≤ 0.12 µg/mL
same,MIC,Porphyromonas spp.; KUB No. 6670 Porphyromonas gingivalis,≤ 0.12 µg/mL
same,MIC,Porphyromonas spp.; KUB No. 6671 Porphyromonas gingivalis,≤ 0.12 µg/mL
same,MIC,Porphyromonas spp.; KUB No. 6672 Porphyromonas gingivalis,≤ 0.12 µg/mL
same,MIC,Porphyromonas spp.; KUB No. 6673 Porphyromonas gingivalis,≤ 0.12 µg/mL
same,MIC,Porphyromonas spp.; KUB No. 6674 Porphyromonas gingivalis,≤ 0.12 µg/mL
same,MIC,Porphyromonas spp.; KUB No. 6676 Porphyromonas gingivalis,≤ 0.12 µg/mL
same,MIC,Porphyromonas spp.; KUB No. 6677 Porphyromonas gingivalis,≤ 0.12 µg/mL
same,MIC,Porphyromonas spp.; KUB No. 6678 Porphyromonas gingivalis,≤ 0.12 µg/mL
same,MIC,Porphyromonas spp.; KUB No. 6679 Porphyromonas gingivalis,≤ 0.12 µg/mL
same,MIC,Porphyromonas spp.; KUB No. 6680 Porphyromonas gingivalis,≤ 0.12 µg/mL
same,MIC,Porphyromonas spp.; KUB No. 6681 Porphyromonas gingivalis,≤ 0.12 µg/mL
same,MIC,Porphyromonas spp.; KUB No. 6682 Porphyromonas gingivalis,≤ 0.12 µg/mL
same,MIC,Porphyromonas spp.; KUB No. 6683 Porphyromonas gingivalis,≤ 0.12 µg/mL
same,MIC,Porphyromonas spp.; KUB No. 6684 Porphyromonas gingivalis,≤ 0.12 µg/mL
same,MIC,Porphyromonas spp.; KUB No. 6685 Porphyromonas gingivalis,≤ 0.12 µg/mL
same,MIC,Porphyromonas spp.; KUB No. 6686 Porphyromonas gingivalis,≤ 0.12 µg/mL
same,MIC,Porphyromonas spp.; KUB No. 6687 Porphyromonas gingivalis,≤ 0.12 µg/mL
same,MIC,Porphyromonas spp.; KUB No. 6688 Porphyromonas gingivalis,≤ 0.12 µg/mL
same,MIC,"Porphyromonas spp.; Porphyromonas, KUB No. 6665 Porphyromonas assaccharolytica",≤ 0.12 µg/mL
same,MIC50,"Porphyromonas spp.; Porphyromonas, table at the place of Table 24, Prevotella spp., read-out: MIC50",≤ 0.12 µg/mL
same,MIC90,"Porphyromonas spp.; Porphyromonas, table at the place of Table 24, Prevotella spp., read-out: MIC90",≤ 0.12 µg/mL
same,MICrange,"Porphyromonas spp.; table at the place of Table 24, Prevotella spp.",≤0.12 µg/mL
